Patent US6737383B1, “Herbicidal oxadiazolidines” (priority 1999, dated 2004)

Experiments:
bamyardgrass = assay: Test B flood test barnyardgrass; format: in vivo, Echinochloa crus-galli
Method in brief: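 Plants were grown to the 2-leaf stage before treatment with test chemical, then held in a greenhouse for twelve to sixteen days. Injury was visually rated against untreated controls on a 0–10 scale, where 0 is no effect and 10 is complete control.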

green foxtail = assay: Test E green foxtail; format: in vivo, Setaria viridis; settings: Preemergence
cocklebur = assay: Test B pre/postemergence cocklebur; format: in vivo, Xanthium strumarium; settings: for Cocklebur plant response rating (0 to 10 scale): 0 is no effect
Method in brief: (§1)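 Test chemicals in a non-phytotoxic solvent mixture with surfactant were sprayed preemergence onto planted seeds and postemergence onto plants 2 to 18 cm tall (1- to 4-leaf stage). After twelve to sixteen days in a greenhouse, injury was visually rated against untreated controls from 0 (no effect) to 10 (complete control).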

winter barley = assay: Test E winter barley; format: in vivo, Hordeum vulgare; settings: Preemergence
blackgrass = assay: Test E blackgrass; format: in vivo, Alopecurus myosuroides; settings: Preemergence
Italian ryegrass = assay: Test E Italian ryegrass; format: in vivo, Lolium multiflorum; settings: Preemergence
sugar beet = assay: Test B pre/postemergence sugar beet; format: in vivo, Beta vulgaris; settings: for Sugarbeets plant response rating (0 to 10 scale): 0 is no effect
Method in brief: as §1

wild oat = assay: Test E wild oat; format: in vivo, Avena fatua; settings: Preemergence
rape = assay: Test B pre/postemergence rape; format: in vivo, Brassica napus; settings: for Rape plant response rating (0 to 10 scale): 0 is no effect
Method in brief: as §1

winter wheat = assay: Test E winter wheat; format: in vivo, Triticum aestivum; settings: Preemergence
[1] = Rate 62 g/ha, headed Pre-emergence (flood test species), scale 0 to 10 (0 no effect, 10 complete control)
[2] = Rate 125 g/ha, Pre-emergence, flood test species, scale 0 to 10 where 0 is no effect and 10 is complete control
[3] = Rate 250 g/ha, Pre-emergence, flood-test species, scale 0 to 10, 0 is no effect, 10 is complete control
[4] = Rate 500 g/ha, headed Pre-emergence (flood test species), scale 0 to 10 (0 no effect, 10 complete control)
[5] = Rate 500 g/ha, 0 to 100 scale where 0 is no effect and 100 is complete control
[6] = Preemergence, Rate 62 g/ha, scale of 0 to 10 where 0 is no effect and 10 is complete control
[7] = Preemergence, Rate 125 g/ha, 10 is complete control
[8] = Preemergence, Rate 250 g/ha, scale 0 to 10, 0 is no effect, 10 is complete control
[9] = Preemergence, Rate 500 g/ha, scale 0 (no effect) to 10 (complete control)
[10] = Preemergence, Rate 500 g/ha, scale of 0 to 10 where 0 is no effect and 10 is complete control
[11] = Rate 62 g/ha, Postemergence, scale of 0 to 10 where 0 is no effect and 10 is complete control
[12] = Rate 125 g/ha, Postemergence, scale 0 to 10
[13] = Rate 500 g/ha, Postemergence, scale 0 to 10
[14] = Preemergence, Rate 500 g/ha, scale 0 to 10 (0 no effect, 10 complete control)
[15] = Postemergence, Rate 125 g/ha, scale of 0 to 10 where 0 is no effect and 10 is complete control
[16] = Postemergence, Rate 250 g/ha, scale 0 to 10, 0 no effect, 10 complete control
[17] = Preemergence, Rate 62 g/ha, scale 0 to 10 (0 no effect, 10 complete control)
[18] = Preemergence, Rate 125 g/ha, scale 0 to 10 (0 no effect, 10 complete control)
[19] = Rate 500 g/ha, Postemergence, scale 0 to 10, 0 no effect, 10 complete control
[20] = Preemergence, Rate 250 g/ha, scale of 0 to 10 where 0 is no effect and 10 is complete control

CCc1cccc(C)c1-n1c(=O)on(C(=O)N(c2ccc(F)cc2)C(C)C)c1=O [Compound 201]
Barnyardgrass plant response rating (bamyardgrass; [1]): 0
Barnyardgrass plant response rating (bamyardgrass; [2]): 0
Barnyardgrass plant response rating (bamyardgrass; [3]): 0
Plant response rating, Barnyardgrass (bamyardgrass; [4]): 9
Green foxtail plant response rating (0 to 100 scale) (green foxtail; Rate 250 g/ha): 50
Plant response rating, Green foxtail (green foxtail; [5]): 65
Cocklebur plant response rating (cocklebur; [6]): 0
Cocklebur plant response rating (0 to 10 scale) (cocklebur; [7]): 0
Cocklebur plant response rating (cocklebur; [8]): 0
Cocklebur plant response rating (cocklebur; [9]): 0
Plant response rating, Cocklebur (cocklebur; [10]): 0
Cocklebur plant response rating (cocklebur; [11]): 0
Cocklebur plant response rating (cocklebur; [12]): 0
Plant response rating (0 to 10; 0 is no effect, 10 is complete control), Cocklebur (cocklebur; Rate 250 g/ha, Postemergence): 0
Cocklebur plant response rating (cocklebur; [13]): 0
Barley (winter) plant response rating (0 to 100 scale) (winter barley; Rate 250 g/ha): 0
Plant response rating, Barley (winter) (winter barley; [5]): 20
Blackgrass plant response rating (0 to 100 scale) (blackgrass; Rate 250 g/ha): 30
Plant response rating, Blackgrass (blackgrass; [5]): 50
I. Ryegrass plant response rating (0 to 100 scale) (Italian ryegrass; Rate 250 g/ha): 50
Plant response rating, I. Ryegrass (Italian ryegrass; [5]): 60
Sugarbeets plant response rating (sugar beet; [6]): 0
Sugarbeets plant response rating (0 to 10 scale) (sugar beet; [7]): 0
Sugarbeets plant response rating (sugar beet; [8]): 0
Sugarbeets plant response rating (sugar beet; [9]): 0
Plant response rating, Sugarbeets (sugar beet; [10]): 0
Sugarbeets plant response rating (sugar beet; [11]): 0
Sugarbeets plant response rating (sugar beet; [12]): 0
Plant response rating (0 to 10; 0 is no effect, 10 is complete control), Sugarbeets (sugar beet; Rate 250 g/ha, Postemergence): 3
Sugarbeets plant response rating (sugar beet; [13]): 4
Wild oat plant response rating (0 to 100 scale) (wild oat; Rate 250 g/ha): 50
Plant response rating, Wild oat (wild oat; [5]): 40
Rape plant response rating (rape; [6]): 0
Rape plant response rating (0 to 10 scale) (rape; [7]): 0
Rape plant response rating (rape; [8]): 0
Rape plant response rating (rape; [9]): 0
Plant response rating, Rape (rape; [10]): 0
Rape plant response rating (rape; [11]): 0
Rape plant response rating (rape; [12]): 0
Plant response rating (0 to 10; 0 is no effect, 10 is complete control), Rape (rape; Rate 250 g/ha, Postemergence): 0
Rape plant response rating (rape; [13]): 0
Wheat (winter) plant response rating (0 to 100 scale) (winter wheat; Rate 250 g/ha): 40
Plant response rating, Wheat (winter) (winter wheat; [5]): 40

COc1nc(OC)nc(N(C(=O)n2oc(=O)n(-c3ccccc3C)c2=O)C(C)C)n1 [Compound 181]
Barnyardgrass plant response rating (bamyardgrass; [1]): 0
Barnyardgrass plant response rating (bamyardgrass; [2]): 0
Barnyardgrass plant response rating (bamyardgrass; [3]): 0
Plant response rating, Barnyardgrass (bamyardgrass; [4]): 0
Cocklebur plant response rating (cocklebur; [6]): 0
Cocklebur plant response rating (0 to 10 scale) (cocklebur; [7]): 0
Cocklebur plant response rating (cocklebur; [8]): 0
Cocklebur plant response rating (cocklebur; [14]): 0
Cocklebur plant response rating (cocklebur; [11]): 0
Cocklebur plant response rating (cocklebur; [12]): 0
Plant response rating (0 to 10; 0 is no effect, 10 is complete control), Cocklebur (cocklebur; Rate 250 g/ha, Postemergence): 0
Cocklebur plant response rating (cocklebur; [13]): 0
Sugarbeets plant response rating (sugar beet; [6]): 0
Sugarbeets plant response rating (0 to 10 scale) (sugar beet; [7]): 0
Sugarbeets plant response rating (sugar beet; [8]): 0
Sugarbeets plant response rating (sugar beet; [14]): 0
Sugarbeets plant response rating (sugar beet; [11]): 0
Sugarbeets plant response rating (sugar beet; [12]): 0
Plant response rating (0 to 10; 0 is no effect, 10 is complete control), Sugarbeets (sugar beet; Rate 250 g/ha, Postemergence): 0
Sugarbeets plant response rating (sugar beet; [13]): 0
Rape plant response rating (rape; [6]): 0
Rape plant response rating (0 to 10 scale) (rape; [7]): 0
Rape plant response rating (rape; [8]): 0
Rape plant response rating (rape; [14]): 0
Rape plant response rating (rape; [11]): 0
Rape plant response rating (rape; [12]): 0
Plant response rating (0 to 10; 0 is no effect, 10 is complete control), Rape (rape; Rate 250 g/ha, Postemergence): 0
Rape plant response rating (rape; [13]): 0

Cc1nn(C)c(Cl)c1-n1c(=O)on(C(=O)N(c2ccccc2)C(C)C)c1=O [Compound 121]
Barnyardgrass plant response rating (bamyardgrass; Postemergence (flood test species), Rate 125 g/ha, scale of 0 to 10 where 0 is no effect and 10 is complete control): 0
Barnyardgrass plant response rating (bamyardgrass; Postemergence, Rate 62 g/ha, scale 0 to 10, 0 is no effect, 10 is complete control): 0
Barnyardgrass plant response rating (bamyardgrass; Rate 250 g/ha, headed Pre-emergence (flood test species), scale 0 to 10 (0 no effect, 10 complete control)): 0
Plant response rating, Barnyardgrass (bamyardgrass; [4]): 8
Barnyardgrass plant response rating (bamyardgrass; Rate 500 g/ha, listed under Postemergence (flood test species), scale 0 to 10, 0 no effect, 10 complete control): 6
Barnyardgrass plant response rating (bamyardgrass; Rate 1000 g/ha, Pre-emergence (as headed), scale 0 to 10): 9
Barnyardgrass plant response rating (bamyardgrass; Rate 2000 g/ha, Pre-emergence (as headed), scale 0 to 10, 0 no effect, 10 complete control): 9
Barnyardgrass plant response rating (bamyardgrass; flood test, listed under Postemergence, Rate 250 g/ha, scale 0 to 10, 0 no effect, 10 complete control): 0
Cocklebur plant response rating (cocklebur; [15]): 2
Cocklebur plant response rating (cocklebur; [16]): 2
Cocklebur plant response rating (cocklebur; [17]): 0
Plant response rating, Cocklebur (cocklebur; [18]): 0
Cocklebur plant response rating (cocklebur; [14]): 0
Cocklebur plant response rating (cocklebur; [11]): 0
Cocklebur plant response rating (cocklebur; [19]): 5
Sugarbeets plant response rating (sugar beet; [15]): 0
Sugarbeets plant response rating (sugar beet; [17]): 0
Sugarbeets plant response rating (0 to 10 scale) (sugar beet; [7]): 3
Plant response rating, Sugarbeets (sugar beet; [20]): 7
Sugarbeets plant response rating (sugar beet; [14]): 7
Sugarbeets plant response rating (sugar beet; [11]): 0
Plant response rating, Sugarbeets (sugar beet; Rate 250 g/ha, Postemergence, scale 0 to 10, 0 is no effect, 10 is complete control): 4
Sugarbeets plant response rating (sugar beet; [19]): 4
Rape plant response rating (rape; [15]): 0
Rape plant response rating (rape; [16]): 2
Rape plant response rating (rape; [17]): 0
Plant response rating, Rape (rape; [18]): 0
Plant response rating, Rape (rape; [20]): 0
Rape plant response rating (rape; [14]): 0
Rape plant response rating (rape; [11]): 0
Rape plant response rating (rape; [19]): 3
